In PubChem BioAssay (NCI):
Values joined by “and” are separate entries in the source; they are usually repeats but may differ in a detail not shown here. Equal values may be shown once.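 Five concentrations, 48 hours, 96-well plates. GI50 = concentration required for 50% inhibition of growth. TGI marks complete inhibition of growth.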

How the values were obtained:
Assay in all cases: NCI tumour cell line growth inhibition, 48 h
[1] = test system: HOP-62 NSCLC
[2] = test system: K-562 leukemia
[3] = test system: NCI-H522 lung
[4] = test system: NCI/ADR-RES ovarian
[5] = test system: OVCAR-3 ovarian
[6] = test system: SF-268 CNS
[7] = test system: SK-MEL-5 melanoma
[8] = test system: SR leukemia
[9] = test system: M14 melanoma
[10] = test system: MDA-MB-435

CN1CCN(CC(O)COc2c(Br)c(Br)c(Br)c3c2OC(C)(C)C3)CC1 (stereo not drawn)
GI50 [1]: 4.26 µM | TGI [1]: 25.1 µM | GI50 [2]: 2.06 µM | TGI [2]: > 100 µM | GI50 [3]: 6.15 µM | TGI [3]: 28.5 µM | GI50 [4]: 15.9 µM | TGI [4]: 49 µM | GI50 [5]: 3.56 µM | TGI [5]: 17.4 µM | GI50 [6]: 5.79 µM | TGI [6]: 24.1 µM | GI50 [7]: 1.83 µM | TGI [7]: 3.27 µM | GI50 [8]: 1.95 µM | TGI [8]: 4.75 µM

CC1(C)CCC[C@]2(C)[C@@H](C=O)C(C=O)=CC[C@@H]12
TGI [1]: > 100 µM | TGI [9]: 33.7 µM | TGI [10]: > 100 µM | TGI [3]: 37.4 µM | TGI [4]: 40.8 µM | TGI [5]: 28 µM | TGI [6]: 55.8 µM | TGI [7]: 29 µM | TGI [8]: 44.5 µM

COc1cc(/C=C/[N+](=O)[O-])cc(Br)c1OC
GI50 [1]: 3.32 µM | TGI [1]: 10.1 µM | GI50 [2]: 2.21 µM | TGI [2]: > 100 µM | GI50 [9]: 1.78 µM | TGI [9]: 3.74 µM | GI50 [10]: 2.33 µM | TGI [10]: 6.15 µM | GI50 [3]: 0.816 µM | TGI [3]: 2.83 µM | GI50 [4]: 3.62 µM | TGI [4]: 19.5 µM | GI50 [5]: 3.23 µM | TGI [5]: 10.2 µM | GI50 [6]: 3.64 µM | TGI [6]: 13.2 µM | GI50 [7]: 2.13 µM | TGI [7]: 4.93 µM | GI50 [8]: 2.02 µM | TGI [8]: > 100 µM

CN1CCC(n2cnc(-c3ccc(F)cc3)c2-c2ccnc(N)n2)CC1
GI50 [1]: 9.44 µM | TGI [1]: > 25 µM | GI50 [2]: 11.6 µM | TGI [2]: > 25 µM | GI50 [9]: 11.7 µM | TGI [9]: > 25 µM | GI50 [10]: 8.82 µM | TGI [10]: > 25 µM | GI50 [3]: 8.57 µM | TGI [3]: > 25 µM | GI50 [4]: 7.55 µM | TGI [4]: > 25 µM | GI50 [5]: 11 µM | TGI [5]: > 25 µM | GI50 [6]: 10.4 µM | TGI [6]: > 25 µM | GI50 [7]: 11.6 µM | TGI [7]: > 25 µM | GI50 [8]: 10.4 µM | TGI [8]: > 25 µM

C/C1=C\[C@@H](O)C(=O)/C=C/C=C\c2csc(n2)[C@@H](C)NC(=O)C[C@@]2(CC1)S(=O)SC(=O)[C@]2(C)O (stereo partly drawn)
GI50 [1]: 0.28 µM | TGI [1]: 0.374 µM and 1.83 µM | TGI [2]: > 100 µM | TGI [9]: 0.0397 µM | TGI [10]: 0.0562 µM | TGI [3]: 0.0105 µM | TGI [4]: 0.11 µM | TGI [6]: 0.285 µM and 0.06 µM | TGI [7]: 0.0435 µM and 0.0168 µM | GI50 [8]: > 100 µM

C[C@@H]1O[C@@H](OC[C@H]2O[C@@H](OCCc3ccc(O)c(O)c3)[C@H](O)[C@@H](O)[C@@H]2OC(=O)/C=C/c2ccc(O)c(O)c2)[C@H](O)[C@H](O)[C@H]1O
GI50 [1]: > 100 µM | TGI [1]: > 100 µM | GI50 [2]: > 100 µM | TGI [2]: > 100 µM | GI50 [9]: > 100 µM | TGI [9]: > 100 µM | GI50 [10]: > 100 µM | TGI [10]: > 100 µM | GI50 [3]: > 100 µM | TGI [3]: > 100 µM | GI50 [4]: 74.3 µM | TGI [4]: > 100 µM | GI50 [5]: > 100 µM | TGI [5]: > 100 µM | GI50 [6]: > 100 µM | TGI [6]: > 100 µM | GI50 [7]: > 100 µM | TGI [7]: > 100 µM | GI50 [8]: 93.8 µM | TGI [8]: > 100 µM

COC12c3ccccc3-c3ccccc3C1[C@H]1C(=O)OC(=O)[C@H]12 (stereo partly drawn)
TGI [1]: > 10 µM | TGI [2]: > 10 µM | TGI [9]: > 10 µM | TGI [10]: > 10 µM | TGI [3]: > 10 µM | TGI [4]: > 10 µM | TGI [5]: > 10 µM | TGI [6]: > 10 µM | TGI [7]: > 10 µM | TGI [8]: > 10 µM

BrCc1ccc(CBr)cc1
GI50 [1]: 4.23 µM | TGI [1]: 9.68 µM | GI50 [2]: 7.1 µM | TGI [2]: > 20.6 µM | GI50 [9]: 11.3 µM | TGI [9]: > 47.3 µM | GI50 [10]: 5.56 µM | TGI [10]: 15.6 µM | GI50 [3]: 18.2 µM | TGI [3]: 52.2 µM | GI50 [4]: 6.95 µM | TGI [4]: > 21.1 µM | GI50 [5]: 4.1 µM | TGI [5]: 17.4 µM | GI50 [6]: 5.82 µM | TGI [6]: 18 µM | GI50 [7]: 14.3 µM | TGI [7]: 40.2 µM | GI50 [8]: > 100 µM | TGI [8]: > 100 µM

CC1(C)N=C(N)N=C(N)N1c1ccc(CCCCc2ccc(S(=O)(=O)F)cc2)c(Cl)c1
GI50 [1]: 1.45 µM | TGI [1]: 23.7 µM | GI50 [2]: 0.0628 µM | TGI [2]: 17.9 µM | GI50 [9]: 0.334 µM | TGI [9]: 17.9 µM | GI50 [10]: 0.0666 µM | TGI [10]: 16.6 µM | GI50 [3]: 0.419 µM | TGI [3]: 16.7 µM | GI50 [4]: 45 µM | TGI [4]: > 100 µM | GI50 [5]: 0.851 µM | TGI [5]: 17.4 µM | GI50 [6]: 0.225 µM | TGI [6]: 19.5 µM | GI50 [7]: 0.345 µM | TGI [7]: 12.5 µM | GI50 [8]: 0.051 µM | TGI [8]: 23.2 µM

CN(CCCCCl)P(=O)(OCCS(=O)(=O)CC(NC(=O)CCC(N)C(=O)O)C(=O)NC(C(=O)O)c1ccccc1)OCC1OC(n2cc(F)c(=O)[nH]c2=O)CC1O (stereo not drawn)
GI50 [1]: < 0.01 µM | TGI [1]: 6.99 µM | GI50 [2]: 1.81 µM | TGI [2]: > 100 µM | GI50 [9]: 0.0647 µM | TGI [9]: 2.85 µM | GI50 [10]: 2.27 µM | TGI [10]: > 100 µM | GI50 [3]: 0.266 µM | TGI [3]: > 57.4 µM | GI50 [4]: 0.323 µM | TGI [4]: > 65.1 µM | GI50 [5]: 1.22 µM | TGI [5]: > 84.4 µM | GI50 [6]: < 0.01 µM | GI50 [7]: 0.989 µM | TGI [7]: 15.9 µM | TGI [8]: > 90.9 µM

C[CH2][Pb]([CH2]C)([CH2]C)[O]C(=O)c1ccc2ccccc2n1
GI50 [1]: > 10 µM | TGI [1]: > 10 µM | GI50 [2]: > 10 µM | TGI [2]: > 10 µM | GI50 [9]: > 10 µM | TGI [9]: > 10 µM | GI50 [10]: > 10 µM | TGI [10]: > 10 µM | GI50 [3]: > 10 µM | TGI [3]: > 10 µM | GI50 [4]: > 10 µM | TGI [4]: > 10 µM | GI50 [5]: > 10 µM | TGI [5]: > 10 µM | GI50 [6]: > 10 µM | TGI [6]: > 10 µM | GI50 [7]: > 10 µM | TGI [7]: > 10 µM | GI50 [8]: > 10 µM | TGI [8]: > 10 µM

CCN1C(=O)N(CC)C2C1NN=c1s/c(=C3\C(=O)N(CCc4ccccc4)c4ccccc43)c(=O)n12 (stereo not drawn)
GI50 [1]: 0.697 µM | TGI [1]: 9.97 µM | GI50 [2]: 0.353 µM | TGI [2]: > 100 µM | GI50 [9]: 0.478 µM | TGI [9]: 12.5 µM | GI50 [10]: 0.245 µM | TGI [10]: 0.684 µM | GI50 [3]: 0.337 µM | TGI [3]: 3.95 µM | GI50 [4]: 0.378 µM | TGI [4]: 6.48 µM | GI50 [5]: 0.291 µM | TGI [5]: 0.901 µM | GI50 [6]: 1.95 µM | TGI [6]: 27.4 µM | GI50 [7]: 0.305 µM | TGI [7]: 1.23 µM | GI50 [8]: 0.461 µM | TGI [8]: > 36.2 µM

CC(C)(C)CN1CCn2c(nc3c(N)nccc32)S1
GI50 [1]: 17 µM | TGI [1]: > 100 µM | GI50 [2]: 4.64 µM | TGI [2]: 67.7 µM | GI50 [9]: 5.68 µM | TGI [9]: 24.9 µM | GI50 [10]: 6.67 µM | TGI [10]: 86.1 µM | GI50 [3]: 13.5 µM | TGI [3]: 31.6 µM | GI50 [4]: 17.1 µM | TGI [4]: > 100 µM | GI50 [5]: 12.3 µM | TGI [5]: 29.3 µM | GI50 [6]: 12.5 µM | TGI [6]: 34.9 µM | GI50 [7]: 14.5 µM | TGI [7]: 31.1 µM | GI50 [8]: 3.24 µM | TGI [8]: 47.4 µM
